Experimental data from the supplement of paper PMC10307832.

Legend:
Experiment in all cases: relative viability (nuclei count vs DMSO), 5 days (fraction); higher = more cells survive
Cediranib + AZD7762 = compound: COc1cc2c(Oc3ccc4[nH]c(C)cc4c3F)ncnc2cc1OCCCN1CCCC1 [Cediranib] + NC(=O)Nc1cc(-c2cccc(F)c2)sc1C(=O)N[C@H]1CCCNC1 [AZD7762] (partner 0.2 µM)
Outline: (§1)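 A single step with final 0.05% Triton X-100, 1% formaldehyde and 1 ug/ml Hoechst fixed the cells and stained nuclei 5 days after treatment. Lung cancer cell lines in 1536-well plates had been treated by pin tool the day after seeding with one drug alone or a fixed anchor-drug dose plus five library-drug doses (not always all listed) in √10 steps, and nuclei were counted on 4× images. Relative viability is the ratio of nuclei in treated wells to nuclei in vehicle wells, taken as the median of duplicate plates.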

Cediranib + Vorinostat = compound: COc1cc2c(Oc3ccc4[nH]c(C)cc4c3F)ncnc2cc1OCCCN1CCCC1 [Cediranib] + O=C(CCCCCCC(=O)Nc1ccccc1)NO [Vorinostat] (partner 1 µM)
Outline: as §1

Decitabine + Dasatinib = compound: Nc1ncn([C@H]2C[C@H](O)[C@@H](CO)O2)c(=O)n1 [Decitabine] + Cc1nc(Nc2ncc(C(=O)Nc3c(C)cccc3Cl)s2)cc(N2CCN(CCO)CC2)n1 [Dasatinib] (partner 0.075 µM)
Outline: as §1

[1] = compound: O=C(C[C@H]1NCCC[C@@H]1O)Cn1cnc2cc(Br)c(Cl)cc2c1=O (racemic) [Halofuginone] + C[C@@H](Oc1cc(-c2cnn(C3CCNCC3)c2)cnc1N)c1c(Cl)ccc(F)c1Cl [Crizotinib] (partner 1 µM)
Outline: as §1

Cell Line | relative viability (Cediranib + AZD7762; first compound 0.04 µM) | relative viability (Cediranib + AZD7762; first compound 0.1265 µM) | relative viability (Cediranib + AZD7762; first compound 0.4 µM) | relative viability (Cediranib + AZD7762; first compound 1.265 µM) | relative viability (Cediranib + AZD7762; first compound 4 µM) | relative viability (Cediranib + Vorinostat; first compound 0.04 µM) | relative viability (Cediranib + Vorinostat; first compound 0.1265 µM) | relative viability (Cediranib + Vorinostat; first compound 0.4 µM) | relative viability (Cediranib + Vorinostat; first compound 1.265 µM) | relative viability (Cediranib + Vorinostat; first compound 4 µM) | relative viability (Decitabine + Dasatinib; first compound 0.04 µM) | relative viability (Decitabine + Dasatinib; first compound 0.1265 µM) | relative viability (Decitabine + Dasatinib; first compound 0.4 µM) | relative viability (Decitabine + Dasatinib; first compound 1.265 µM) | relative viability (Decitabine + Dasatinib; first compound 4 µM) | relative viability ([1]; first compound 0.001 µM) | relative viability ([1]; first compound 0.003162 µM) | relative viability ([1]; first compound 0.01 µM) | relative viability ([1]; first compound 0.03162 µM) | relative viability ([1]; first compound 0.1 µM)
NCI-H647 | 0.498 | 0.462 | 0.389 | 0.404 | 0.475 | 0.689 | 0.594 | 0.56 | 0.509 | 0.684 | 0.212 | 0.261 | 0.196 | 0.104 | 0.0939 | 0.942 | 1.13 | 0.978 | 0.834 | 0.0795
201T | 0.705 | 0.445 | 0.607 | 0.521 | 0.618 | 1.08 | 0.631 | 0.84 | 0.973 | 1.04 | 0.567 | 0.595 | 0.578 | – | 0.517 | 0.966 | 1.02 | 1.04 | 1.05 | 0.964
NCI-H1734 | 0.679 | 0.952 | 0.446 | 0.42 | 0.629 | 0.718 | 0.805 | 0.77 | 0.768 | 0.911 | 0.433 | 0.378 | 0.423 | 0.298 | 0.219 | 0.738 | 0.718 | 0.67 | 0.659 | 0.277
NCI-H596 | 1.21 | 1.31 | 0.853 | 0.969 | 1.2 | 0.584 | 0.488 | 0.585 | 0.682 | 0.836 | 0.59 | 0.585 | – | 0.508 | 0.435 | 1.23 | 1.05 | 0.941 | 1.01 | 0.666
